Patent EP4810500A1, “IMIDAZOL-2-ONE DERIVATIVE AND USE THEREOF IN MEDICINE” (Haisco Pharmaceutical Group Co., Ltd., priority 2023, dated 2025)
Where two headings read alike, the source gives them in different places.

Assays:
[1] = target: T1, CYP1A2 (Homo sapiens, UniProt P05177); assay: CYP450 enzyme activity inhibition assay (human liver microsomes); format: in vitro ADME
T1 construct: from tissue; host or cells: human liver microsomes
T1 sequence (P05177 1-516): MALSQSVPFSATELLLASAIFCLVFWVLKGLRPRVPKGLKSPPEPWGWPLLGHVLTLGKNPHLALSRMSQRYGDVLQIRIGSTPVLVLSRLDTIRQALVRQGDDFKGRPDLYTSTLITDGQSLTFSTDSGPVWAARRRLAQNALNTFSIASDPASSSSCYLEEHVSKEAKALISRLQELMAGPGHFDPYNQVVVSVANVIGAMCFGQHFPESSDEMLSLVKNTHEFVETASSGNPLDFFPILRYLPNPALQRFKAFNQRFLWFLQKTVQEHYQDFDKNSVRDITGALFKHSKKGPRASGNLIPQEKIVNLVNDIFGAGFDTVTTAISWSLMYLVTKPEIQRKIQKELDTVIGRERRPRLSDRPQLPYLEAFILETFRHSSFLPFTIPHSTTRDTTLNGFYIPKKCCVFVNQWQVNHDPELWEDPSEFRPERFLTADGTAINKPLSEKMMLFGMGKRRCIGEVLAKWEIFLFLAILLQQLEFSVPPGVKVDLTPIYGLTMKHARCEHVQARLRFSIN
Description: (§1) The purpose of this study was to evaluate the effects of the test compounds on the activities of five isoenzymes (CYP1A2, CYP2C9, CYP2C19, CYP2D6, and CYP3A4) of human liver microsomal cytochrome P450 (CYP) using an in vitro testing system. The specific probe substrates of CYP450 isoenzymes were incubated with human liver microsomes and test compounds of different concentrations, and reduced nicotinamide adenine dinucleotide phosphate (NADPH) was added to initiate the reaction. After the completion of the reaction, the sample was treated and liquid chromatography-tandem mass spectrometry (LC-MS/MS) was used to quantitatively detect metabolites produced by specific substrates. Changes in CYP enzyme activity were determined, and IC50 value was calculated to evaluate the inhibitory potential of the test compound on each CYP enzyme subtype.

[2] = target: T2, CYP2C19 (Homo sapiens, UniProt P33261); assay: as above; format: in vitro ADME
T2 construct: from tissue; host or cells: human liver microsomes
Description: as §1

[3] = target: T3, CYP2C9 (Homo sapiens, UniProt P11712); assay: as above; format: in vitro ADME
T3 construct: from tissue; host or cells: human liver microsomes
Description: as §1

[4] = target: T4, CYP2D6 (Homo sapiens, UniProt P10635); assay: as above; format: in vitro ADME
T4 construct: from tissue; host or cells: human liver microsomes
Description: as §1

[5] = target: T5, CYP3A4 (Homo sapiens, UniProt P08684); assay: as above; format: in vitro ADME
T5 construct: from tissue; host or cells: human liver microsomes
Description: as §1

[6] = target: T6, GLP-1R (Homo sapiens, UniProt P43220); assay: In vitro activity assay (cAMP HTRF, HEK293-CRE-luc-GLP-1R cells); format: cell-based; set-up: expressed in transfected cells; host or cells: HEK293 (HEK293-CRE-luc-GLP-1R); details: cAMP HTRF 665 nm/620 nm, 1 h incubation
Description: HEK293-CRE-luc-GLP-1R cells were seeded into a 384-well cell culture plate (Greiner #781946) at a certain cell density (5 µL/well). 5 µl/well of 2× working solution was added to the 384-well microplate. The microplate was sealed with parafilm and incubated in a 37°C 5% CO2 incubator (Thermo) for 1 h. Subsequently, the detection was performed using the cAMP-GS HIRANGE KIT (PerkinElmer, 62AM6PEB), and detection reagents were prepared according to the kit instruction manual. After the incubation, the detection reagents were added to the 384-well microplate, and the microplate was incubated for 1 h at room temperature in the dark. HTRF signals at 665 nm and 620 nm were then measured using a multimode microplate reader. Data were exported from the microplate reader in Excel format. GraphPad Prism was opened. The logarithm of the sample concentration was calculated. Using the logarithm of concentration as the x-axis and the 665 nm/620 nm ratio as the y-axis, four-parameter logistic fitting was performed to obtain the EC50 value of the curve. Table 1: EC50 of compounds against GLP-1

[7] = Mouse pharmacokinetic assay; format: in vivo, male C57 mice; details: plasma, mice; for bioavailability: intragastric administration 10 mg/kg (intravenous 2.5 mg/kg); for AUC(0-t): intragastric administration 10 mg/kg
Description: Experimental animals: male C57 mice, 22-25 g, 6 mice/compound.
Experimental design: on the day of the experiment, C57 mice were randomly grouped according to body weight. The animals were fasted with water available for 12 h to 14 h one day before the administration, and were fed 4 h after the administration. Table 2. Administration information
Before and after the administration, 0.06 mL of blood was taken from the orbits under isoflurane anaesthesia and placed in an EDTAK2 centrifuge tube. The blood was centrifuged at 5000 rpm at 4°C for 10 min, and the plasma was collected. The blood collection time points for the intravenous administration group and intragastric administration group were 0, 5 min, 15 min, 30 min, 1 h, 2 h, 4 h, 7 h and 24 h. Before analysis and detection, all samples were stored at -80°C, and the samples were quantitatively analysed by LC-MS/MS. Table 2-1 Pharmacokinetic results of test compounds in mice

[8] = Monkey pharmacokinetic assay; format: in vivo, male cynomolgus monkeys; details: cynomolgus monkey, monkeys; for bioavailability: intragastric administration 5 mg/kg (intravenous 1 mg/kg); for AUC(0-t): intragastric administration 5 mg/kg
Description: Experimental animals: male cynomolgus monkeys, 3-5 kg, 3-6 years old, 5 monkeys/compound, purchased from Hainan New Source Biotechnology Co., Ltd.
Experimental method: On the day of the experiment, five monkeys were randomly grouped according to body weight, with two in the intravenous administration group and three in the intragastric administration group. The animals were fasted with water available for 14 h to 18 h one day before the administration, and were fed 4 h after the administration. Table 3. Administration information

[9] = target: T6, GLP-1R; assay: Oral glucose tolerance test (OGTT); format: in vivo, male C57BL/6-G1p1rem2 (hGLP1R) Smoc mice; set-up: from tissue; host or cells: whole animal: male C57BL/6-Glp1r em2(hGLP1R) Smoc knock-in mice; details: 3 mg/kg, orally administered; from blood glucose AUC0-2 h after glucose load
Description: OGTT experiment was performed in male C57BL/6-G1p1rem2 (hGLP1R) Smoc mice to evaluate the hypoglycaemic effect of GLP-1 receptor agonists. The animals were fasted for more than 16 hours and randomly grouped. Tail tip blood was collected and basal fasting blood glucose (FBG) was measured using a blood glucose meter. Mice with FBG in the range of 3.5-6.5 mmol/L were selected and orally administered, and the control group was administered the vehicle. 15 min after administration, each group of animals was intragastrically administered with 25% glucose solution. Blood glucose levels were measured in tail tip blood collected 15 min, 30 min, 45 min, 1 h, and 2 h after glucose administration. 0-2 h blood glucose AUC0-2 h was calculated using the Graphpad Prism software, and the inhibition rate was further calculated. [formula]

[10] = target: T7, OATP1B1 (Homo sapiens, UniProt Q9Y6L6); assay: SLC transporter inhibition assay (HEK293-OATP1B1 cells); format: in vitro ADME; details: test substance 0-30 µM, read-out: IC50 against OATP1B1
T7 construct: expressed in transfected cells; host or cells: HEK293
T7 sequence (Q9Y6L6 1-691): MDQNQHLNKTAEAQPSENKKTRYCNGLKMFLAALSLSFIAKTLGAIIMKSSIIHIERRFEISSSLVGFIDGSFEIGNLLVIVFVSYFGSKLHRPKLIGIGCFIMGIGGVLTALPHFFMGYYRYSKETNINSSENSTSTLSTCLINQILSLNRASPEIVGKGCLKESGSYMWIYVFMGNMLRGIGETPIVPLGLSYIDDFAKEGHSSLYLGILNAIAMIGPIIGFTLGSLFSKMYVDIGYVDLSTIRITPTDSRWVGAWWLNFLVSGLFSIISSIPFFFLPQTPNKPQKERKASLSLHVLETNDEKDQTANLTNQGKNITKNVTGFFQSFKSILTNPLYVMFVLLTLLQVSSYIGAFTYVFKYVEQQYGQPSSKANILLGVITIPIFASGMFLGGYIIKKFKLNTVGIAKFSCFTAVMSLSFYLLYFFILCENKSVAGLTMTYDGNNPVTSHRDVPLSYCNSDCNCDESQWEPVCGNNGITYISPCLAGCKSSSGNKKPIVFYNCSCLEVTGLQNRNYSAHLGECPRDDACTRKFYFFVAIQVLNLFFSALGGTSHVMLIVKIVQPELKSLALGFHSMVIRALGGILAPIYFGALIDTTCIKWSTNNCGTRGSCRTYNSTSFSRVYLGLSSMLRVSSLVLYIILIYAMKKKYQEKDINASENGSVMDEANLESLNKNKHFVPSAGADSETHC
Description: (§2) The objective of this study was to evaluate the inhibitory effects of the test substance on the activities of the transporters OATP1B1 and OATP1B3.
(§3) HEK293-OATP1B1 and OATP1B3 cells were incubated with and without the test substance (0-30 µM) for the corresponding time. Samples were then collected, and the substrate content in the samples was detected by liquid chromatography-tandem mass spectrometry (LC-MS/MS). By calculating the transport activity of the transporter with and without the test substance, the percentage of transporter activity of the transporter-expressing cells at different administration concentrations of the test substance (%VC (Vehicle Control, solvent control), the percentage of transport activity of the transporter with and without the test substance) was obtained, and the half-maximal inhibitory concentration (IC50) was calculated from this.

[11] = target: OATP1B3 (Homo sapiens, UniProt Q9NPD5); assay: in vitro; details: oatp1b3 cells
OATP1B3, sequence (Q9NPD5 whole entry, species assumed): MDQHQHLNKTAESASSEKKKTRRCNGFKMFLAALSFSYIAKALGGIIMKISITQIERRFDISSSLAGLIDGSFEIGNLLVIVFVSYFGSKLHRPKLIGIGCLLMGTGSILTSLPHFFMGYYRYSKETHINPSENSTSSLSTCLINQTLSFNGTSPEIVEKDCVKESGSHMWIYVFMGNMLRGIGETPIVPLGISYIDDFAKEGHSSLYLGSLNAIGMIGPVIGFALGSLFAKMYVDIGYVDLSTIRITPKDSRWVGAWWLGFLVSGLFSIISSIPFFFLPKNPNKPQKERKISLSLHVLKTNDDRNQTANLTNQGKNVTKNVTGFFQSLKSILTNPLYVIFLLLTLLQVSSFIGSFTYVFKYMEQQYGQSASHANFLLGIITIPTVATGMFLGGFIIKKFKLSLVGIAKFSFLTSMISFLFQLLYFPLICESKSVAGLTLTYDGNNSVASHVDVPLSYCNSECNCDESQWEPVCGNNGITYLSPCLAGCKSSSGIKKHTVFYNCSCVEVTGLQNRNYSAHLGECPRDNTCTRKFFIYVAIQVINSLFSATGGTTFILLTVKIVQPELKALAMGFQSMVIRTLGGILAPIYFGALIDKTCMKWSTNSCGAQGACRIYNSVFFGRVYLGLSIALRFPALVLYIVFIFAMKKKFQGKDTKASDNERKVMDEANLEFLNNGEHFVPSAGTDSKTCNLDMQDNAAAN
Description: as §2, §3

T3 sequence (P11712 whole entry): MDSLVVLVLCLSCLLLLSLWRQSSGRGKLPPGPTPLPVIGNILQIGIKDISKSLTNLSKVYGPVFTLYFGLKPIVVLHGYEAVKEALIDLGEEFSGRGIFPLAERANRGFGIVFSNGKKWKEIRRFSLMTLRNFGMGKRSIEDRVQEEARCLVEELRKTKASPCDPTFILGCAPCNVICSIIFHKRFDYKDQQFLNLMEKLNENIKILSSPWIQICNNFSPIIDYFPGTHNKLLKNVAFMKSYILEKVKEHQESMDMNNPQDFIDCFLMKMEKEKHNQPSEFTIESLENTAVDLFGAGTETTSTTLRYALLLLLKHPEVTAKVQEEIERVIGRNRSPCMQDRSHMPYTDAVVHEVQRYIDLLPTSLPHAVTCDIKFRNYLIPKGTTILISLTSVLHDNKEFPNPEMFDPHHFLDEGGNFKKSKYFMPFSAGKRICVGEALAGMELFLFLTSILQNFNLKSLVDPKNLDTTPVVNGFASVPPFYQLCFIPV
T6 sequence (P43220 24-463): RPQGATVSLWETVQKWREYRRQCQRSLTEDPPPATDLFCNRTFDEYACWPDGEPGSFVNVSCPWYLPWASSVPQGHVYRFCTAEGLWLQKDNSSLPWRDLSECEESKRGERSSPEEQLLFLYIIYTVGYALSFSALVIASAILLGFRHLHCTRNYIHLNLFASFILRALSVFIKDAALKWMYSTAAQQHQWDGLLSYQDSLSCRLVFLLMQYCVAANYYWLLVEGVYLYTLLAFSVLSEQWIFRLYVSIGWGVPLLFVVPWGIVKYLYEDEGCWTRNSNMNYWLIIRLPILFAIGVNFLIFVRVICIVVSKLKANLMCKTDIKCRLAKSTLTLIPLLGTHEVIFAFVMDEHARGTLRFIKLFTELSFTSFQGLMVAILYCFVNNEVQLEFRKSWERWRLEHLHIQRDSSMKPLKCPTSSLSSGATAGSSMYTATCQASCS
T2 sequence (P33261 whole entry): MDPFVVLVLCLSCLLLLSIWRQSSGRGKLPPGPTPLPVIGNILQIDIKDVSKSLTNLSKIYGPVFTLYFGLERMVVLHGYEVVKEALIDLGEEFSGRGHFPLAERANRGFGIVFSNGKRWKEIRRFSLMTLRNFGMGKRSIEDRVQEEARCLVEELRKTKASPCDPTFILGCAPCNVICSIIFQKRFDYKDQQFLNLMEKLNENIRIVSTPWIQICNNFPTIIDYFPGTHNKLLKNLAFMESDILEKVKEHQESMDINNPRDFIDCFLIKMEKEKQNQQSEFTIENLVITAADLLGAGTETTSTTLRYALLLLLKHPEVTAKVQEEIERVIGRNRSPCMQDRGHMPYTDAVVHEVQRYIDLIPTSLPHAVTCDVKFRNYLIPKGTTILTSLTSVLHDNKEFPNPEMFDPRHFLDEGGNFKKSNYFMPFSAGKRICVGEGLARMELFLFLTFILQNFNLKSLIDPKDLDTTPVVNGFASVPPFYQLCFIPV
T4 sequence (P10635 whole entry): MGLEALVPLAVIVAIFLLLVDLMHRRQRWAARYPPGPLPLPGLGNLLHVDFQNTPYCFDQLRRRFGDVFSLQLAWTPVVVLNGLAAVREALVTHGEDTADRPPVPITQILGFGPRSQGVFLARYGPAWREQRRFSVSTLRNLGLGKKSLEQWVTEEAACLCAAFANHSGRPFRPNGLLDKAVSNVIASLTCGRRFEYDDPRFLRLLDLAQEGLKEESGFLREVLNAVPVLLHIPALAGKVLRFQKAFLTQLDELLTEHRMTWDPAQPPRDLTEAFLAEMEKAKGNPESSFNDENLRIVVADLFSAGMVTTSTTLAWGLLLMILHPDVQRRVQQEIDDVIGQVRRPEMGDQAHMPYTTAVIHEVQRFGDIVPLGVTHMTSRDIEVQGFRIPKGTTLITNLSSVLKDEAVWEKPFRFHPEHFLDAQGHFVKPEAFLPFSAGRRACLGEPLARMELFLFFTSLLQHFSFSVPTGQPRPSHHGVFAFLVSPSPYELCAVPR
T5 sequence (P08684 whole entry): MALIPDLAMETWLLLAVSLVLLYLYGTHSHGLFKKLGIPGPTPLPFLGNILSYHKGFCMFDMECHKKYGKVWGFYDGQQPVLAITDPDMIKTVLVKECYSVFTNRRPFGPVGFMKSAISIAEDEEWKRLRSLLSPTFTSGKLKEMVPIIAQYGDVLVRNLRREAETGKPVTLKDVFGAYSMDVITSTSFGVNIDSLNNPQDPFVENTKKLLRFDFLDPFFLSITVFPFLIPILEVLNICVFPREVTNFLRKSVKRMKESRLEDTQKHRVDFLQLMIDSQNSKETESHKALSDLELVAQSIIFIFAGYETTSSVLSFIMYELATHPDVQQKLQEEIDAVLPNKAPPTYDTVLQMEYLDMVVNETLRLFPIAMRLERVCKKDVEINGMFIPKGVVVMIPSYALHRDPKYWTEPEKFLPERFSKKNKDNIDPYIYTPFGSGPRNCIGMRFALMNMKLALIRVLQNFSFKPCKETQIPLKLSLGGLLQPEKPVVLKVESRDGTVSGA

Structure (SMILES)	IC50 ([1]; human, microsomes) [µM]	IC50 ([2]; human, microsomes) [µM]	IC50 ([3]; human, microsomes) [µM]	IC50 ([4]; human, microsomes) [µM]	IC50 ([5]; human, microsomes) [µM]	EC50 [6] [µM]	bioavailability ([7]; mouse, po) [%]	AUC(0-t) ([7]; mouse, po) [ng·h/mL]	blood glucose inhibition rate [9] [%]	further results
Cc1cc(-n2nc3c(c2-n2ccn(-c4ccc5c(c4)N(C)C(=O)C54CCOCC4)c2=O)[C@H](C)N(C(=O)c2cc4cc(C5CCOC(C)(C)C5)sc4n2C2(c4noc(=O)[nH]4)C[C@@H]2C)CC3)cc(C)c1F (single isomer, unassigned) [Compound 9]	> 30	> 30	3.31	> 30	> 30	< 0.001				
Cc1cc(-n2nc3c(c2-n2ccn(-c4ccc5c(c4)N(C)C(=O)C54CCOCC4)c2=O)[C@H](C)N(C(=O)c2cc4cc([C@H]5CCOC(C)(C)C5)ccc4n2[C@@]2(c4noc(=O)[nH]4)C[C@@H]2C)CC3)cc(C)c1F [Compound 2]						< 0.001	70.3	23200	-25.5	bioavailability ([8]; in vivo, po): 32.6%; AUC(0-t) ([8]; po, plasma): 11600 ng·h/mL
[2H]C([2H])([2H])N1C(=O)C2(CCOCC2)c2ccc(-n3ccn(-c4c5c(nn4-c4cc(C)c(F)c(C)c4)CCN(C(=O)c4cc6cc([C@H]7CCOC(C)(C)C7)ccc6n4[C@@]4(c6noc(=O)[nH]6)C[C@@H]4C)[C@H]5C)c3=O)cc21 [Compound 3]	> 30	> 30	> 30	> 30	> 30	< 0.001			-37.1	
C[C@H]1c2c(nn(-c3ccc(F)c(C4(F)CC4)c3)c2-n2ccn(-c3ccc4c(c3)N(C)C(=O)C43CCOCC3)c2=O)CCN1C(=O)c1cc2cc([C@H]3CCOC(C)(C)C3)ccc2n1[C@@]1(c2noc(=O)[nH]2)C[C@@H]1C [Compound 6]	> 30	> 30	> 30	> 30	> 30	< 0.001				IC50 [10]: > 2 µM; IC50 [11]: > 1 µM
C=C(F)c1cc(-n2nc3c(c2-n2ccn(-c4ccc5c(c4F)N(C)C(=O)C54CCOCC4)c2=O)[C@H](C)N(C(=O)c2cc4cc([C@H]5CCOC(C)(C)C5)ccc4n2[C@@]2(c4noc(=O)[nH]4)C[C@@H]2C)CC3)ccc1F [Compound 54]						< 0.001	33.8	12100		
[2H]C([2H])([2H])N1C(=O)C2(CCOCC2)c2ccc(-n3ccn(-c4c5c(nn4-c4ccc(F)c(C(=C)F)c4)CCN(C(=O)c4cc6cc([C@H]7CCOC(C)(C)C7)ccc6n4[C@@]4(c6noc(=O)[nH]6)C[C@@H]4C)[C@H]5C)c3=O)c(F)c21 [Compound 55]						< 0.001	25.1	8670		
[2H]C([2H])([2H])N1C(=O)C2(CCOCC2)c2ccc(-n3ccn(-c4c5c(nn4-c4cc(C)c(F)c(C)c4)CCN(C(=O)c4cc6cc(C7CCOCC7)ccc6n4[C@@]4(c6noc(=O)[nH]6)C[C@@H]4C)[C@H]5C)c3=O)c(F)c21 [Compound 57]						< 0.001				
[2H]C([2H])([2H])N1C(=O)C2(CCOCC2)c2ccc(-n3ccn(-c4c5c(nn4-c4cc(C)c(F)c(C)c4)CCN(C(=O)c4cc6cc(C7CCOCC7)ccc6n4[C@@]4(c6noc(=O)[nH]6)C[C@@H]4C)[C@H]5C)c3=O)cc21 [Compound 58]						< 0.001				
Cc1cc(-n2nc3c(c2-n2ccn(-c4ccc5c(cnn5C)c4F)c2=O)[C@H](C)N(C(=O)c2cc4cc([C@H]5CCOC(C)(C)C5)ccc4n2[C@@]2(c4noc(=O)[nH]4)C[C@@H]2C)CC3)cc(C)c1F [Orforglipron, reference compound]									-9.8	bioavailability ([7]; male, C57, mouse, oral): 7.93%; AUC(0-t) ([7]; male, C57, mouse, po): 3260 ng·h/mL; bioavailability ([8]; male, plasma, oral): 1.93%; AUC(0-t) ([8]; male, po, plasma): 584 ng·h/mL; IC50 ([1]; human liver microsomes, NADPH, read-out: IC50 (µM) CYP1A2): > 30 µM; IC50 ([2]; human liver microsomes, NADPH, read-out: IC50 (µM) CYP2C19): > 30 µM; IC50 ([3]; human liver microsomes, NADPH, read-out: IC50 (µM) CYP2C9): 0.905 µM; IC50 ([4]; human liver microsomes, NADPH, read-out: IC50 (µM) CYP2D6): > 30 µM; IC50 ([5]; human liver microsomes, NADPH, read-out: IC50 (µM) CYP3A4): > 30 µM
